Experimental data taken from paper PMC8999917, “Structure–Activity Relationship of Synthetic Ginkgolic Acid Analogs for Treating Type 2 Diabetes by PTPN9 Inhibition” (International Journal of Molecular Sciences, 2022).

Tested on: Akt phosphorylation
Assay: Western blot of Akt phosphorylation in C2C12 myotubes
Format: cell-based, mouse
Source text: To further investigate the mechanism of action of 1e, we evaluated its effects on AMPK and AKT phosphorylation in C2C12 myotubes. […] In line with the results obtained in 3T3-L1 cells, in the absence of insulin, 1e had no effects on basal p-Akt expression levels (Figure 6A). Since insulin plays an important role in regulating glucose metabolism through the redistribution of GLUT4 from intracellular vesicles to the cell surface, it is important to describe the interaction between 1e and insulin in the Akt pathway. […] Next, we evaluated the protective effects of 1e against PA-induced insulin resistance in C2C12 myotubes. To generate an insulin resistance model, C2C12 myotubes were treated with 250 µM PA in a serum-free medium for 16 h. Akt phosphorylation levels in PA-treated C2C12 cells decreased by 50% compared to levels in normal C2C12 cells (Figure 6C). Furthermore, in the presence of insulin and GA, Akt phosphorylation levels decreased only by 30% compared to levels in normal cells. […] The expression levels of glucose uptake-related proteins were determined via Western blotting, as previously described. […] Secondary antibodies were added to the membranes at a concentration of 1:2000 for 1 h at room temperature, and immunoreactive bands were detected via ECL (GE Healthcare Korea Co., Ltd., Incheon, Korea). […]

With `CCCCCCCCCCCCCOc1cccc(O)c1C(=O)O` [Compound 1e] the “Akt phosphorylation on co-treatment with insulin” value (100 nM insulin) was “synergistic Akt phosphorylation-improving effects with insulin” and the “basal p-Akt expression levels” value (absence of insulin) was “no effects”.
